Results published in patent US20260325487A1 (BS BIOTECHNA SPOLKA AKCYJNA, priority 2023, published 2026).
Like-named read-outs stand apart in the source and are kept apart here.

Key:
Type in all cases: cell-based
LN229 [1] = test: SRB anti-proliferative assay, LN229, with CalcuSyn combination index (Example 1); details: Homo sapiens, LN-229, 72 h, read-out: Zah. (inhibition of proliferation)
Experimental: (§1) Cells were thawed from ampoules stored in liquid nitrogen and cultured in petri dishes in appropriate culture medium according to Table 2, in a humidified 5% CO2 atmosphere at 37° C. Cells were passaged twice weekly using EDTA-Trypsin solution, pH 8. Counted cells with a viability of at least 90% as assessed with Trypan-Blue solution were used for anti-proliferative assays.
(§2) Twenty-four hours before the addition of the test compounds/combinations, cells were seeded into 384-well plates at 50 μL/well and a density of 10^3 cells/well, in the appropriate culture medium.
(§3) Solutions of the compounds were diluted in the test medium-RPMI-1640 and Opti-MEM in a 1:1 ratio, and the medium was supplemented with 2 mM glutamine and 5% fetal bovine serum FBS. After 72 h, colourimetric assessment of cell growth was performed by SRB. […] Unbound dye was removed by washing the plates (4×) in 1% (v/v) acetic acid, and protein-bound dye was extracted with 10 mM unbuffered Tris base and the optical density (A=540 nm) was determined in a BioTek Synergy H4 Hybrid computer microplate reader (BioTek Instruments USA). The entire washing/staining procedure was performed using a BioTek EL406 washing station (BioTek Instruments USA). The raw absorbance results were analysed in Microsoft Excel software using the formula:
(§4) [formula] • Where: • % Zahlnh-inhibition of proliferation • Am—absorbance of wells without cells (medium) • Ak—absorbance of control wells (cells treated with pure culture medium) • Ap—absorbance of wells treated with compounds
(§5) Each compound at the indicated concentrations was tested in triplicate in one experiment. Each experiment was repeated three times. Data analysis was supplemented with synergy assessment using CalcuSyn software. […] A CI value below 0.8 indicates synergism, 0.8-1.2 an additive effect, above 1.2 an antagonism.

LN229 [2] = test: SRB anti-proliferative assay, LN229, molecular combination and nanoparticles, with combination index (Example III); details: Homo sapiens
Experimental: (§6) Cells were thawed from ampoules stored in liquid nitrogen and cultured in petri dishes in the appropriate culture medium according to Table 16, in a humidified 5% CO2 atmosphere at 37° C. Cells were passaged twice weekly using EDTA-Trypsin solution, pH 8, as a separating agent. Counted cells with a viability of at least 90% as assessed with Trypan-Blue solution were used for anti-proliferation assays.
(§7) Twenty-four hours before the addition of the test compounds/combinations, cells were seeded into 384-well plates at 50 μL/well and a density of 10^3 cells/well, in the appropriate culture medium. […] Solutions of the compounds were diluted in the test medium—RPMI-1640 and Opti-MEM in a 1:1 ratio, and the medium was supplemented with 2 mM glutamine and 5% fetal bovine serum FBS.
as §3, with “After” for “Solutions of the compounds were diluted in the test medium-RPMI-1640 and Opti-MEM in a 1:1 ratio, and the medium was supplemented with 2 mM glutamine and 5% fetal bovine serum FBS. After”
as §4, §5

LUDLU-1 = test: SRB anti-proliferative assay, LUDLU-1, molecular combination and nanoparticles, with combination index (Example III); details: Homo sapiens, LUDLU-1, read-out: Zah. (inhibition of cell proliferation)
Experimental: as §6, §7
as §3, with “After” for “Solutions of the compounds were diluted in the test medium-RPMI-1640 and Opti-MEM in a 1:1 ratio, and the medium was supplemented with 2 mM glutamine and 5% fetal bovine serum FBS. After”
as §4, §5

NCI-H1299 = test: SRB anti-proliferative assay, NCI-H1299, with CalcuSyn combination index (Example 1); details: Homo sapiens, NCI-H1299, 72 h, read-out: Zah. (inhibition of proliferation)
Experimental: as §1, §2, §3, §4, §5

NCI-H226 = test: SRB anti-proliferative assay, NCI-H226, molecular combination and nanoparticles, with combination index (Example III); details: Homo sapiens
Experimental: as §6, §7
as §3, with “After” for “Solutions of the compounds were diluted in the test medium-RPMI-1640 and Opti-MEM in a 1:1 ratio, and the medium was supplemented with 2 mM glutamine and 5% fetal bovine serum FBS. After”
as §4, §5

SKMES-1 = test: SRB anti-proliferative assay, SKMES-1, molecular combination and nanoparticles, with combination index (Example III); details: Homo sapiens, SK-MES-1, read-out: Inhibition of cell proliferation (Zah.)
Experimental: as §6, §7
as §3, with “After” for “Solutions of the compounds were diluted in the test medium-RPMI-1640 and Opti-MEM in a 1:1 ratio, and the medium was supplemented with 2 mM glutamine and 5% fetal bovine serum FBS. After”
as §4, §5

[3] = LN-229, 72 h, read-out: Zah. (inhibition of proliferation)
[4] = LN-229, read-out: Zah. (inhibition of cell proliferation)

C=CCNC1=C2C[C@@H](C)C[C@H](OC)[C@H](O)[C@@H](C)/C=C(\C)[C@H](OC(N)=O)[C@@H](OC)/C=C\C=C(/C)C(=O)NC(=CC1=O)C2=O [17AAG, 17-AAG (tanespimycin)]
inhibition at 0.0032 µM (LN229 [1]): 3.3% | inhibition at 0.01 µM (LN229 [1]): 3.1% | inhibition at 0.0316 µM (LN229 [1]): 18.4% | inhibition at 0.1 µM (LN229 [1]): 28.9% | inhibition at 0.3163 µM (LN229 [1]): 38.7% | inhibition at 1 µM (LN229 [1]): 62.9% | inhibition at 3.1625 µM (LN229 [1]): 71.6% | inhibition at 10.0005 µM (LN229 [1]): 81.5% | inhibition at 0.0032 µM (LN229 [2]; [3]): 3.3% | inhibition at 0.01 µM (LN229 [2]; [3]): 3.1% | inhibition at 0.0316 µM (LN229 [2]; [3]): 18.4% | inhibition at 0.1 µM (LN229 [2]; [3]): 28.9% | inhibition at 0.3163 µM (LN229 [2]; [3]): 38.7% | inhibition at 1 µM (LN229 [2]; [3]): 62.9% | inhibition at 3.1625 µM (LN229 [2]; [3]): 71.6% | inhibition at 10.0005 µM (LN229 [2]; [3]): 81.5% | inhibition at 0.0032 µM (LN229 [2]; [4]): 3.3% | inhibition at 0.01 µM (LN229 [2]; [4]): 3.1% | inhibition at 0.0316 µM (LN229 [2]; [4]): 18.4% | inhibition at 0.1 µM (LN229 [2]; [4]): 28.9% | inhibition at 0.3163 µM (LN229 [2]; [4]): 38.7% | inhibition at 1 µM (LN229 [2]; [4]): 62.9% | inhibition at 3.1625 µM (LN229 [2]; [4]): 71.6% | inhibition at 10.0005 µM (LN229 [2]; [4]): 81.5% | inhibition at 0.0003163 µM (LUDLU-1): 3.9% | inhibition at 0.001 µM (LUDLU-1): 29.3% | inhibition at 0.0032 µM (LUDLU-1): 61.9% | inhibition at 0.01 µM (LUDLU-1): 75.1% | inhibition at 0.0316 µM (LUDLU-1): 60.2% | inhibition at 0.1 µM (LUDLU-1): 65.7% | inhibition at 0.3163 µM (LUDLU-1): 76.9% | inhibition at 1 µM (LUDLU-1): 80.2% | inhibition at 0.0031 µM (NCI-H1299): 5.1% | inhibition at 0.01 µM (NCI-H1299): 10.5% | inhibition at 0.0314 µM (NCI-H1299): 43.4% | inhibition at 0.1 µM (NCI-H1299): 80.8% | inhibition at 0.3155 µM (NCI-H1299): 93.4% | inhibition at 1 µM (NCI-H1299): 96.9% | inhibition at 3.1546 µM (NCI-H1299): 96.8% | inhibition at 10 µM (NCI-H1299): 95.3% | inhibition at 0.0032 µM (NCI-H226; NCI-H226, read-out: Inhibition of cell proliferation (Zah.), single agent, 3.2 nM): 10.4% | inhibition at 0.01 µM (NCI-H226; NCI-H226, read-out: Inhibition of cell proliferation (Zah.), single agent, 10 nM): 17.2% | inhibition at 0.0316 µM (NCI-H226; NCI-H226, read-out: Inhibition of cell proliferation (Zah.), single agent, 31.6 nM): 29.4% | inhibition at 0.1 µM (NCI-H226; NCI-H226, read-out: Inhibition of cell proliferation (Zah.), single agent, 100 nM): 51.4% | inhibition at 0.3163 µM (NCI-H226; NCI-H226, read-out: Inhibition of cell proliferation (Zah.), single agent, 316.3 nM): 59.1% | inhibition at 1 µM (NCI-H226; NCI-H226, read-out: Inhibition of cell proliferation (Zah.), single agent, 1000 nM): 65% | inhibition at 3.1625 µM (NCI-H226; NCI-H226, read-out: Inhibition of cell proliferation (Zah.), single agent, 3162.5 nM): 69.5% | inhibition at 10.0005 µM (NCI-H226; NCI-H226, read-out: Inhibition of cell proliferation (Zah.), single agent, 10000.5 nM): 68.4% | inhibition at 0.0032 µM (NCI-H226; NCI-H226, read-out: Zah. (inhibition of cell proliferation), NCI-H226 (Table 35a), compound alone, 3.2 nM): 10.4% | inhibition at 0.01 µM (NCI-H226; NCI-H226, read-out: Zah. (inhibition of cell proliferation), NCI-H226 (Table 35a), compound alone, 10 nM): 17.2% | inhibition at 0.0316 µM (NCI-H226; NCI-H226, read-out: Zah. (inhibition of cell proliferation), NCI-H226 (Table 35a), compound alone, 31.6 nM): 29.4% | inhibition at 0.1 µM (NCI-H226; NCI-H226, read-out: Zah. (inhibition of cell proliferation), NCI-H226 (Table 35a), compound alone, 100 nM): 51.4% | inhibition at 0.3163 µM (NCI-H226; NCI-H226, read-out: Zah. (inhibition of cell proliferation), NCI-H226 (Table 35a), compound alone, 316.3 nM): 59.1% | inhibition at 1 µM (NCI-H226; NCI-H226, read-out: Zah. (inhibition of cell proliferation), NCI-H226 (Table 35a), compound alone, 1000 nM): 65% | inhibition at 3.1625 µM (NCI-H226; NCI-H226, read-out: Zah. (inhibition of cell proliferation), NCI-H226 (Table 35a), compound alone, 3162.5 nM): 69.5% | inhibition at 10.0005 µM (NCI-H226; NCI-H226, read-out: Zah. (inhibition of cell proliferation), NCI-H226 (Table 35a), compound alone, 10000.5 nM): 68.4% | inhibition at 0.0032 µM (NCI-H226; NCI-H226, read-out: Zah. (inhibition of cell proliferation), NCI-H226, compound alone, 3.2 nM): -6.6% | inhibition at 0.01 µM (NCI-H226; NCI-H226, read-out: Zah. (inhibition of cell proliferation), NCI-H226, compound alone, 10 nM): -4.6% | inhibition at 0.0316 µM (NCI-H226; NCI-H226, read-out: Zah. (inhibition of cell proliferation), NCI-H226, compound alone, 31.6 nM): 30.6% | inhibition at 0.1 µM (NCI-H226; NCI-H226, read-out: Zah. (inhibition of cell proliferation), NCI-H226, compound alone, 100 nM): 44.7% | inhibition at 0.3163 µM (NCI-H226; NCI-H226, read-out: Zah. (inhibition of cell proliferation), NCI-H226, compound alone, 316.3 nM): 49.3% | inhibition at 1 µM (NCI-H226; NCI-H226, read-out: Zah. (inhibition of cell proliferation), NCI-H226, compound alone, 1000 nM): 59% | inhibition at 3.1625 µM (NCI-H226; NCI-H226, read-out: Zah. (inhibition of cell proliferation), NCI-H226, compound alone, 3162.5 nM): 63.5% | inhibition at 10.0005 µM (NCI-H226; NCI-H226, read-out: Zah. (inhibition of cell proliferation), NCI-H226, compound alone, 10000.5 nM): 61.4% | inhibition at 0.0003163 µM (SKMES-1): 2.2% | inhibition at 0.001 µM (SKMES-1): 46.7% | inhibition at 0.0032 µM (SKMES-1): 86.7% | inhibition at 0.01 µM (SKMES-1): 90.6% | inhibition at 0.0316 µM (SKMES-1): 85.1% | inhibition at 0.1 µM (SKMES-1): 87.9% | inhibition at 0.3163 µM (SKMES-1): 89.3% | inhibition at 1 µM (SKMES-1): 89.1%
